Where a name gives a salt, the structure may show the parent alone.
How the values were obtained:
[1] = Auditory Brainstem Response (ABR) Assay; format: in vivo, rats; details: Day 24 vs Day 0, FIG. 2
Protocol: Chronic treatment of rats with aminoglycosides (AGs) such as kanamycin or amikacin results in an elevation of ABR thresholds, typically most pronounced at higher frequencies. For rats, hearing is tested at a range of frequencies to determine the intensity of sound (measured in decibels) necessary to evoke a response. As hearing loss becomes more severe, a higher intensity is needed to evoke a response. Each rat serves as its own control; hearing thresholds are determined at each frequency prior to any treatment and then at 2 weeks after a 10-day course of AG treatment (or control drug exposures).
The ABR assay measures short latency field potentials recorded from the scalp of animals that were sedated or noninvasively immobilized. […] For each animal, hearing thresholds, wave 1 latencies and input-output functions for stimulus frequencies at 2, 4, 8, 16 and 32 kHz were measured prior to any treatment to determine the initial sensitivity and dynamic range of hearing, and then repeated at the end of drug treatment and at the end of the experiment (2-weeks after dosing). […]
ABR records were evaluated by a “blinded”, trained experimenter. Hearing loss (Threshold Shift) was determined by subtracting the threshold during pre-treatment (Day 0) from the final ABR threshold (Day 24; two weeks following treatment). […]

[2] = Effect of Amikacin and Compound 9 on Kidney Function: creatinine clearance; format: in vivo, Fischer 344 rats; details: FIG. 3
Protocol: (§1) The study consisted of three groups of Fischer 344 rats aged 6 weeks and weighing approximately 200 g at the start of the study. Group 1 consisted of six rats, randomly selected to receive amikacin only, Group 2 consisted of six rats chosen randomly to receive amikacin and compound 9, and Group 3 consisted of three rats, 2 rats given compound 9 and 1 rat given only 0.5% Methylcellulose, the diluent for compound 9. All animals receiving amikacin were given 320 mg/kg subcutaneously (SQ) from a freshly prepared solution of amikacin of 40 mg/mL. The compound 9 formulation was prepared by weighing 13.08 mg of compound 9 dissolved in 12 mL of 0.5% MC in saline with vortexing, sonification and homogenization to obtain a solution with concentration at 12 mg/12 mL=1 mg/mL, dose volume is 5 mL/kg (5 mg/kg). The compound 9 solution was given by oral gavage at a dose of 5 mg/kg.
(§2) One day prior to the onset of dosing, blood was drawn from all rats for serum analysis and all rats were put into metabolic cages for 24 hour urine collection and analysis. All rats were returned to normal cages and allowed to eat and drink ad lib. All rats received their assigned treatments for 10 days and then were returned to metabolic cages for the 10th day. […] The pathologist read the slides, blinded to the group from which they were assigned. […]

[3] = system: kidney; assay: Kidney histopathology after amikacin with or without compound 9; format: in vivo, Fischer 344 rats; details: amikacin only, section type (longitudinal or cross) not stated, FIG. 4
Protocol: as §1, §2

Hearing loss (Threshold Shift) ([1]; amikacin alone SC 320 mg/kg/day for 10 days)	creatinine clearance (CrCl) post treatment vs baseline ([2]; Group 1: amikacin only 320 mg/kg SQ for 10 days)	SMILES	Hearing loss (Threshold Shift), high frequency ([1]; AMI/320 (amikacin SC 320 mg/kg/day) + Compound 9 PO 5 mg/kg/day for 10 days)	creatinine clearance (CrCl) post treatment vs baseline ([2]; Group 2: amikacin 320 mg/kg SQ + compound 9 5 mg/kg oral gavage for 10 days)	kidney histopathology damage score (0-4) ([3]; first stated change (3.9 to 3.6))	kidney histopathology damage score (0-4) ([3]; second stated change (3.9 to 3.1))
		CN1[C@H]2CC[C@@H]1c1c(sc(NC(=O)Nc3ccc(Cl)cc3)c1C(N)=O)C2 [Compound 9, (4R,7S)-2-(3-(4-chlorophenyl)ureido)-9-methyl-5,6,7,8-tetrahydro-4H-4,7-epiminocyclohepta[b]thiophene-3-carboxamide hydrochloride]	robust protection	significantly different from baseline		
hearing loss	significantly different from baseline	NCC[C@H](O)C(=O)N[C@@H]1C[C@H](N)[C@@H](O[C@H]2O[C@H](CN)[C@@H](O)[C@H](O)[C@H]2O)[C@H](O)[C@H]1O[C@H]1O[C@H](CO)[C@@H](O)[C@H](N)[C@H]1O [amikacin]			3.9	3.9

— patent US9493482B2, “Compounds and methods for preventing or treating sensory hair cell death” (University of Washington, priority 2015, dated 2016)
